The subject of assay [1] is GNS166, GNS179, U87 and U251 cells. Briefly: Immunofluorescence of Ki67, p-H3 and cleaved caspase-3. It is filed as cell-based, human. Conditions: 1, 3 and 5 μM, 48 h. As for the experimental part:
For immunofluorescence assays, cells were seeded at a density of 2 × 10^4 cells/well in 8-well immunofluorescence chambers (LabTek Thermo, Waltham, MA, USA) and incubated overnight. Then, cells were treated for 48 h and fixed with 4% PFA. Primary antibodies against phospho-histone H3 (p-H3) (Abcam), cleaved caspase-3 (Casp3) (R&D Systems, Minneapolis, MN, USA) and Ki67 (Abcam) and secondary antibodies Alexa Fluor anti-mouse and anti-rabbit (Invitrogen, Carlsbad, CA, USA) were used. Nuclei were stained with DAPI (Sigma-Aldrich). Pictures were taken with an Axio Observer 7 epifluorescence microscope, and Qupath version 0.6.0 was used for quantifications. Percentages of Ki67-, p-H3- and Casp3-positive cells were calculated, taking into account the number of nuclei.

Another assay deals with HDAC6. The experiment in a line: Western blot of acetylated α-tubulin (HDAC6 target). It is filed as cell-based, human. Conditions: GNS166 and U87 cells. How it is done: Sodium dodecyl sulfate–polyacrylamide gel electrophoresis was performed. Primary antibodies against HDAC1 (Abcam, Cambridge, UK) and HDAC6 (Cell Signaling, Dancers, MA, USA) and their main targets, acetylated H3 (Cell Signaling) and acetylated α-tubulin (Abcam), were used; acetylated lysine (Cell Signaling) and β-actin (Sigma-Aldrich) were used as endogenous controls. Secondary antibodies conjugated to horseradish peroxidase were anti-rabbit or anti-mouse (Cell Signaling). Proteins were detected using the iBright imaging system and NOVEX ECL Chemi Substrate or SuperSignal West Femto Maximum Sensitivity Substrate (ThermoFisher, Waltham, MA, USA).
In general terms: In western blotting, separated proteins are transferred to a membrane and probed.

In a further assay the test system is U87 glioblastoma cells. The experiment in a line: MTT cell viability, U87. It counts as cell-based. Particulars: Homo sapiens, 72 h, read-out: IC50 U87 (GBM). As for the experimental part:
U87-MG, U251-MG and NCI-H1299 cells were purchased from ATCC, while MKN45 was obtained from the Leibniz Institute DSMZ-German Collection of Microorganisms and Cell Cultures and the RWP1 cell line was kindly provided by Dr. Francisco Real. Cells were cultured in DMEM or RPMI (Gibco, Waltham, MA, USA) supplemented with 10% FBS, 100 U/mL penicillin and streptomycin and 2 mM L-Glutamine. Patient-derived glioma neural stem cells (GNS166 and GNS179) were kindly provided by Dr. Steve Pollard. These cells were cultured in adhesion plates treated with laminin A in DMEM/F12 media (Gibco) supplemented with N2 (Gibco), B27 (Gibco), D-(+)-Glucose solution 45% (Sigma-Aldrich, Burlington, MA, USA), basic Fibroblast Growth Factor (Gibco) and epidermal growth factor (Sigma-Aldrich). Normal human astrocytes (NHAs) were purchased from ScienCell and cultured using an astrocyte medium kit (ScienCell, San Diego, CA, USA) supplemented with FBS and Astrocyte Growth Supplement (AGS). All cells were maintained at standard conditions of 37 °C, 95% humidity, 21% O2 and 5% CO2, and cultures were regularly tested for Mycoplasma.
Cells were seeded in 96-well plates at a density of 1.5 × 10^3 or 5 × 10^3 cells/well (conventional cell lines or GNS and NHAs, respectively) and incubated overnight. Next, cells were treated with increasing concentrations of the compounds, and after 72 h, they were incubated for 3.5 h with MTT. Then, absorbance at 570 nm was measured. GraphPad Prism software version 10.4.1 was used to calculate the IC50 values.

The target in assay [2] is T1, BChE (Homo sapiens, UniProt P06276). The experiment in a line: BChE inhibition, Ellman's colorimetric method. Particulars: read-out: ChE inhibition BChE %. It counts as biochemical.
In assay [3] the target is T1, BChE. Briefly: BChE inhibition, Ellman's colorimetric method. It counts as biochemical. Particulars: read-out: ChE inhibition BChE %. How it is done:
The inhibitory capacity of the compounds on ChEs was assessed using Ellman’s colorimetric method. Briefly, an inhibitor solution containing 10 µM of the MSMs and 0.3 mM DTNB was incubated for 20 min with the enzyme solution ([…]) at 37 °C. […] Inhibition percentages were calculated from these values. […] Further, enzyme kinetics were studied using different substrate and inhibitor concentrations. Results were represented in a Lineweaver–Burk plot using GraphPad Prism, and the constant of inhibition (Ki) was estimated from the point at which the line cuts the x-axis in the secondary plot.
The source holds these as a separate data set. Background: Ellman's reagent forms a yellow product with free thiols.

The next assay deals with T2, recombinant hMAO-A (Homo sapiens, UniProt P21397).
T2 sequence (P21397 1-527): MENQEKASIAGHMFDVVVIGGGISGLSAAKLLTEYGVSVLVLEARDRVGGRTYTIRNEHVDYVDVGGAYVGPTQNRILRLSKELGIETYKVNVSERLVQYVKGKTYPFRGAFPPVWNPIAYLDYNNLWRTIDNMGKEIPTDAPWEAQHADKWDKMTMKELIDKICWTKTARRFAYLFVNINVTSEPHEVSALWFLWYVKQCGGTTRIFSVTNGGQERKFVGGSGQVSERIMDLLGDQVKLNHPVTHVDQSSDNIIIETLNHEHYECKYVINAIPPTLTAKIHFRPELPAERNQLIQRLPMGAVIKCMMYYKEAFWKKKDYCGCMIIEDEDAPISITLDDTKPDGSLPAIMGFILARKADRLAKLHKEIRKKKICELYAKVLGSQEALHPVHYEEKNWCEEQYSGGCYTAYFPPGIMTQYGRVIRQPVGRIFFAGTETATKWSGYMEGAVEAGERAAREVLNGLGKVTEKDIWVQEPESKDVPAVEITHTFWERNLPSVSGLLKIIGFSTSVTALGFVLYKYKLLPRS
Briefly: MAO-A inhibition assay. It is filed as biochemical. Particulars: read-out: MAO inhibition MAO-A %. As for the experimental part:
For MAO inhibition studies, the enzyme solution (0.5 U/mL recombinant hMAO-A or 1.5 U/mL recombinant hMAO-B) was incubated with an inhibitor solution containing 10 µM of the compounds for 30 min at 37 °C. Next, horseradish peroxidase (200 U/mL), Ampliflu Red (20 mM) and tyramine hydrochloride (100 mM) (Sigma-Aldrich) were added, and absorbance was measured at 570 nm every 5 min for 30 min. The percentage of inhibition was calculated from the absorbance values.

The record followed here is paper PMC12736535, “Generation and Characterization of Novel Contilisant+Tubastatin a Multitarget Small Molecules Against Glioblastoma” (Pharmaceutics, 2025).

Usually IC50 stands for the midpoint of a concentration-inhibition curve. For orientation: inhibition means the drop in the measured response relative to a control, in per cent.

T1 sequence (P06276 29-602, species assumed): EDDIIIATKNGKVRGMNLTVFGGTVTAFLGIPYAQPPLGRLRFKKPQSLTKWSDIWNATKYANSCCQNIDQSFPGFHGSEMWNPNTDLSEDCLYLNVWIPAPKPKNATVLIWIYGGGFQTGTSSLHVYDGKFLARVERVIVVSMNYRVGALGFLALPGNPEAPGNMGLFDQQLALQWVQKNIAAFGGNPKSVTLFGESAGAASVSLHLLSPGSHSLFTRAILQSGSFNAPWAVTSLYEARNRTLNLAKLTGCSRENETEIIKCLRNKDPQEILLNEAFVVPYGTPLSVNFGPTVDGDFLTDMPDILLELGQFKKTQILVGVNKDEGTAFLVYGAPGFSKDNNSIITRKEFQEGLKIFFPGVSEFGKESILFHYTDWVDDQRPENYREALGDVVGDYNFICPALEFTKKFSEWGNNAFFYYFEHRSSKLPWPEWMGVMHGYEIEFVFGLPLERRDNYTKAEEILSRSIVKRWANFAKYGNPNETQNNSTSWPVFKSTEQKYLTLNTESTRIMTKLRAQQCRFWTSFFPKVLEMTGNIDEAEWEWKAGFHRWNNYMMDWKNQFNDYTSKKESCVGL

For `CN1CCc2c(c3ccccc3n2Cc2ccc(C(=O)NO)cc2)C1` [Tubastatin A], the “cleaved caspase-3-positive cells” value in assay [1] is reported as “slightly increased”. Moreover, the “levels of acetyl-α-tubulin” value with HDAC6 was “higher levels of acetylated α-tubulin than the FRBs”.
Consider `CCCN(CCC)NC(=O)c1ccc(S(=O)(=O)n2ccc3cc(OC)ccc32)cc1` [FRB21], for which the half-inhibitory concentration (IC50) in the assay on U87 glioblastoma cells was above 100 µM.
As to `CCN(C)C(=O)Oc1cccc([C@H](C)N(C)C)c1` [Rivastigmine, reference compound], the inhibition at 1 µM on BChE [2] came out at 100%. Further, at BChE [3], the inhibition at 10 µM amounted to 100%.
For `CCCNNC(=O)c1ccc(S(=O)(=O)n2ccc3cc(OC)ccc32)cc1` [FRB24], the IC50 in the assay with U87 glioblastoma cells came out at 7.1 µM.
Turning to `C#CCN(C)CCCOc1ccc(Cl)cc1Cl` [Clorgiline, reference compound], at recombinant hMAO-A, the inhibition at 1 µM was found to be 100% and the inhibition at 10 µM amounted to 98%.
